Experimental data as given in patent publication US9862746B2, “Compositions and methods relating to hindering DOT1L recruitment by MLL-fusion proteins” (The Regents of the University of Michigan, priority 2013, dated 2018).
Where a SMILES comes first, the peptide text is derived from it. [ ]: non-standard residue; d: D form. The star is where a group is joined. 5FAM = O=C1OC2(c3ccc(O)cc3Oc3cc(O)ccc32)c2ccc(C(=O)*)cc21; βAla = NCCC(=O)O

Molecular target: T1, ENL L550E (Homo sapiens, UniProt Q03111, L550E)
T1 construct: MBP-ENL (489-559) L550E; made in house; host or cells: Escherichia coli BL21 (DE3)
T1 sequence (Q03111 489-559 L550E): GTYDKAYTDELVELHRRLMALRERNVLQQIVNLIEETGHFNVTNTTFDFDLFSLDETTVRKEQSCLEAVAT
Experiment: FP saturation binding of Flu-DOT1L 10 mer to mutated ENL
Procedure: To further map and determined the residues in C-terminal domain of ENL that are essential for the interaction with DOT1L (so called “hot-spots”), an ENL mutant, L550E (FIG. 7A), was prepared which was reported to block the transforming capacity of MLL-ENL fusion protein (see, e.g., Yokoyama, A., et al., (2010) Cancer cell 17, 198-212).
Fluorescence polarization (FP) assay—FP experiments were performed in 96-well, black, round-bottom plates (Corning) using the plate reader (Biotek H1 hybrid). Fluorescein tagged DOT1L 10 mer peptide (Flu-DOT1L) was used as a fluorescent probe in the FP based binding assays. […] The plate was mixed on a shaker and incubated at room temperature to reach equilibrium. The polarization values in milli-polarization units (mP) were measured at an excitation wavelength at 485 nm and an emission wavelength at 530 nm. Polarization data were analyzed using GraphPad Prism 5.0 by non-linear fitting with a one-site binding model.

CC[C@H](C)[C@H](NC(=O)[C@@H]1CCCN1C(=O)[C@H](CC(C)C)NC(=O)CCNC(=O)CCNC(=O)[C@H](CCCCNC(=O)c1ccc2c(c1)C(=O)OC21c2ccc(O)cc2Oc2cc(O)ccc21)NC(C)=O)C(=O)N[C@@H](CO)C(=O)N[C@H](C(=O)N1CCC[C@H]1C(=O)N[C@@H](CC(C)C)C(=O)N[C@@H](CO)C(=O)N[C@H](C(=O)N[C@H](C(N)=O)C(C)C)[C@@H](C)O)[C@@H](C)CC [fluorescent labeled DOT1L 10-mer peptide] (Ac-K(5FAM)[βAla][βAla]LPISIPLSTV-NH2)
binding to ENL L550E mutant protein: did not show binding
